The record followed here is US20060069132A1, “Azolecarboxamide herbicides” (priority 2004, published 2006).

In one test the test system is woolly cupgrass. Description: Test C pre-/postemergence herbicide test. It counts as in vivo, Eriochloa villosa. Particulars: preemergence. In outline: (§1)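 Greenhouse-grown plants were evaluated visually 12 to 14 days after treatment, with 100 meaning complete control and 0 no effect. Application was preemergence, or postemergence at 2 to 18 cm.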
For the next test, the system named is corn. Put plainly: Test B pre-/postemergence herbicide test. Format: in vivo, Zea mays. In short, it runs like this: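 Herbicidal effect was judged by eye on a 0–100 scale after plants stood 13 to 15 days in the greenhouse following pre- or postemergence treatment with surfactant-containing formulations.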
The next test has as its system soybean. Put plainly: Test C pre-/postemergence herbicide test. Format: in vivo, Glycine max. Particulars: preemergence. In outline:
as §1

Another test has as its system blackgrass. Put plainly: Test B postemergence herbicide test. It counts as in vivo, Alopecurus myosuroides. In outline:
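After treating 2-leaf paddy plants or 2–18 cm postemergence plants (1 to 4 leaves) with formulated chemical, researchers kept them in a greenhouse for 13–15 days. Effects were judged visually versus controls: 0 indicates none, 100 total control.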

The subject of a further test is common ragweed. Put plainly: Test C pre-/postemergence herbicide test. Format: in vivo, Ambrosia elatior. Details: key to Plant response rating, Ragweed: 0 = no effect, 100 = complete control. Particulars: preemergence. In short, it runs like this: as §1
The subject of a further test is ducksalad. Description: Test C flooded paddy test. Format: in vivo, Heteranthera limosa. Particulars: for Plant response rating, Ducksalad: 500 g ai/ha, visual rating after 12 to 14 days.
The subject of another test is rice. Put plainly: Test C flooded paddy test. It counts as in vivo, Oryza sativa. The following applies: for Plant response rating, Rice: 500 g ai/ha, visual rating after 12 to 14 days. In outline:
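Postemergence sprays applied to plants 2 to 18 cm tall (1- to 4-leaf stage); paddy species grown to 2-leaf stage under flooding. After 12 to 14 days in greenhouse, visual rating versus untreated controls on 0–100 scale (0 no effect, 100 complete control).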

Setting [1] is: 125 g ai/ha, scale 0 (no effect) to 100 (complete control), visual, 12 to 14 days.
Where [2] appears, read: 500 g ai/ha, scale 0 to 100 (0 no effect, 100 complete control), visual, 12 to 14 days.
The mark [3] stands for this setting: 125 g ai/ha; 0 = no effect, 100 = complete control; preemergence.
Where [4] appears, read: 500 g ai/ha; visual rating, 0 = no effect, 100 = complete control; preemergence.
Where [5] appears, read: postemergence, 125 g ai/ha; visual rating, scale 0 (no effect) to 100 (complete control).
Where [6] appears, read: postemergence, 500 g ai/ha; scale 0 to 100, 0 is no effect, 100 is complete control.
Setting [7] is: 62 g ai/ha, scale 0 to 100 (0 no effect, 100 complete control).
Setting [8] is: 125 g ai/ha, scale 0 to 100 (0 no effect, 100 complete control).
[9] abbreviates: 250 g ai/ha, scale of 0 to 100, 0 is no effect, 100 is complete control.
Setting [10] is: scale 0 to 100 (0 no effect, 100 complete control).
Setting [11] is: 125 g ai/ha; visual rating, scale 0 (no effect) to 100 (complete control); postemergence.

In the case of `CCn1nc(C(C)(C)C)cc1C(=O)Nc1cc(C(=O)N2CCCC2)ccc1F` [Compound 242], the “Plant response rating, Cupgrass, Woolly” value is 75 in the test on woolly cupgrass (62 g ai/ha, scale 0 to 100); 80 in the test with woolly cupgrass (setting [1]); 95 in the test on woolly cupgrass (250 g ai/ha, scale 0-100); 100 in the test with woolly cupgrass (setting [2]). Further, the “Corn plant response rating (0 to 100 scale)” value in the test on corn (setting [3]) is reported as 30. Besides, the “Plant response rating, Corn” value in the test on corn (setting [4]) is given as 60. The “Corn plant response rating” value came out at 10 with corn (setting [5]) and 40 with corn (setting [6]). Further, the “Plant response rating, Soybean” value amounted to 0 with soybean (62 g ai/ha, scale 0 to 100); 65 in the test with soybean (250 g ai/ha, scale 0-100); 75 in the test with soybean (setting [2]). The “Blackgrass plant response rating” value with blackgrass (setting [5]) came out at 10; in the test with blackgrass (postemergence, 500 g ai/ha; visual rating, scale 0 (no effect) to 100 (complete control)), 20. Moreover, the “Plant response rating, Ragweed” value in the test on common ragweed (62 g ai/ha, scale 0 to 100) came out at 95; in the test on common ragweed (250 g ai/ha, scale 0-100), 100; with common ragweed (setting [2]) it was 100. The results for the “Ducksalad plant response rating” value in the test on ducksalad (setting [7]), in the test on ducksalad (setting [8]) and in the test with ducksalad (setting [9]) were 65, 95 and 95, respectively. Further, the “Plant response rating, Ducksalad” value with ducksalad (setting [10]) stood at 95. The results for the “Rice plant response rating” value in the test with rice (setting [7]), in the test on rice (setting [8]) and in the test with rice (setting [9]) were 50, 85 and 90, respectively. The “Plant response rating, Rice” value in the test on rice (setting [10]) is on record as 90.
For the compound `CCN1N=C(C(C)(C)C)CC1C(=O)Nc1cc(C(=O)N2CCCC2)ccc1F` (racemic) [Compound 309], the “Plant response rating, Cupgrass, Woolly” value was 40 in the test on woolly cupgrass (62 g ai/ha, scale 0 to 100); 70 with woolly cupgrass (setting [1]); 90 in the test with woolly cupgrass (250 g ai/ha, scale 0-100); 100 in the test with woolly cupgrass (setting [2]). Also, in the test on corn (setting [3]), the “Corn plant response rating (0 to 100 scale)” value is 60. The “Corn plant response rating” value stood at 20 with corn (setting [11]) and 60 in the test on corn (setting [6]). For the same compound, in the test with corn (setting [4]), the “Plant response rating, Corn” value came out at 90. Also, the “Plant response rating, Soybean” value in the test with soybean (62 g ai/ha, scale 0 to 100) was determined as 20; with soybean (250 g ai/ha, scale 0-100), 80; in the test with soybean (setting [2]) it was 80. The “Blackgrass plant response rating” value is on record as 10 with blackgrass (setting [11]) and 30 in the test on blackgrass (setting [6]). Moreover, the “Plant response rating, Ragweed” value turned out to be 50 in the test on common ragweed (62 g ai/ha, scale 0 to 100); 70 with common ragweed (250 g ai/ha, scale 0-100); 100 in the test on common ragweed (setting [2]). The “Ducksalad plant response rating” value was 85 with ducksalad (62 g ai/ha, scale 0 to 100); 90 in the test with ducksalad (setting [8]); 90 in the test on ducksalad (setting [9]). Moreover, in the test with ducksalad (setting [10]), the “Plant response rating, Ducksalad” value came to 90. The “Rice plant response rating” value in the test with rice (62 g ai/ha, scale 0 to 100) was determined as 60; with rice (setting [8]), 70; with rice (setting [9]), 75. Besides, the “Plant response rating, Rice” value in the test on rice (setting [10]) is listed as 75.
